From patent publication EP0680950B1, “PROPENONE DERIVATIVES” (KYOWA HAKKO KOGYO CO., LTD., priority 1993, dated 1995) come the findings set out here.

This assay deals with HeLa S3 cells. Kind of assay: HeLa S3 Cell Growth Inhibition Test. In kind it is cell-based. The note with it: Homo sapiens, 72 hours culture with compound, neutral red staining. How it is done: Each 0.1 ml of HeLa S3 cells which had been prepared to 3 x 10^4 cells/ml using a medium consisted of MEM medium, 10 % fetal bovine serum and 2 mM glutamine was distributed in each well of 96 well-microtiter plate. HeLa S3 was cultured at 37°C in a CO2 incubator for one night, each 0.05 ml of test compounds which had been appropriately diluted with the culture solution was added thereto and the mixture was cultured at 37°C for 72 hours in a CO2 incubator. Supernatant was removed, each 0.1 ml of the culture solution containing 0.02 % neutral red was added to the residue, the mixture was incubated at 37°C for one hour in a CO2 incubator and the cells were stained. Supernatant was removed and the residue was washed once with physiological saline. Then, the pigment was extracted with 0.001 N hydrochloric acid/30 % ethanol and the absorbance at 550 nm was measured by a microplatereader. A concentration of the test compound (IC50) at which the growth of cell is inhibited by 50 % was calculated by comparing the absorbance of non-treated cells and that of cells treated with a predetermined concentration of the test compound.
Regarding `COc1cc(C(=O)/C=C/c2c[nH]c3ccc(F)cc23)cc(OC)c1OC` [Compound 29, (E)-3-(5-Fluoroindol-3-yl)-1-(3,4,5-trimethoxyphenyl)-2-propen-1-one], the IC50 was 60 nM.

With `COc1cc(C(=O)/C=C/c2cn(C(=O)c3cccc(C)c3)c3ccccc23)cc(OC)c1OC` [Compound 52, (E)-3-[1-(3-Methylbenzoyl)indol-3-yl]-1-(3,4,5-trimethoxyphenyl)-2-propen-1-one], the IC50 was 58 nM.

On to `COc1cc(C(=O)/C=C/c2cn(C(=O)c3ccccc3)c3ccccc23)cc(OC)c1OC` [Compound 8, (E)-3-(1-Benzoylindol-3-yl)-1-(3,4,5-trimethoxyphenyl)-2-propen-1-one], for which the IC50 worked out at 26 nM.

Turning to `COc1ccc(C(=O)n2cc(/C=C/C(=O)c3cc(OC)c(OC)c(OC)c3)c3ccccc32)cc1` [Compound 51, (E)--3-[1-(4-Methoxybenzoyl)indol-3-yl]-1-(3,4,5-trimethoxyphenyl)-2-propen-1-one], the IC50 turned out to be 23 nM.

As for `COc1cc(C(=O)/C=C/c2c[nH]c3cc(C)ccc23)cc(OC)c1OC` [Compound 32, (E)-3-(6-Methylindol-3-yl)-1-(3,4,5-trimethoxyphenyl)-2-propen-1-one], the IC50 came out at 6.3 nM.

For the compound `COc1cc(C(=O)/C=C/c2c[nH]c3ccccc23)cc(OC)c1OC` [Compound 1, (E)-3-(Indol-3-yl)-1-(3,4,5-trimethoxyphenyl)-2-propen-1-one], the 50% inhibitory concentration (IC50) came to 10 nM.

Turning to `COc1cc(C(=O)/C=C/c2c[nH]c3cccc(C)c23)cc(OC)c1OC` [Compound 15, (E)-3-(4-Methylindol-3-yl)-1-(3,4,5-trimethoxyphenyl)-2-propen-1-one], the IC50 came to 86 nM.

Consider `CCC/C(=C\c1c[nH]c2ccccc12)C(=O)c1cc(OC)c(OC)c(OC)c1` [Compound 49, (E)-3-(Indol-3-yl)-2-propyl-1-(3,4,5-trimethoxyphenyl)-2-propen-1-one], for which the IC50 was 6 nM.

Consider `CCn1cc(/C=C/C(=O)c2cc(OC)c(OC)c(OC)c2)c2ccccc21` [Compound 3, (E)-3-(1-Ethylindol-3-yl)-1-(3,4,5-trimethoxyphenyl)-2-propen-1-one], for which the IC50 was found to be 58 nM.

Take `COc1ccc(C(=O)n2cc(/C=C/C(=O)c3cc(OC)c(OC)c(OC)c3)c3ccccc32)cc1OC` [Compound 58, (E)-3-[1-(3,4-Dimethoxybenzoyl)indol-3-yl]-1-(3,4,5-trimethoxyphenyl)-2-propen-1-one]: the IC50 came to 64 nM.

For `CCCC/C(=C\c1c[nH]c2ccccc12)C(=O)c1cc(OC)c(OC)c(OC)c1` [Compound 65, (E)-2-Butyl-3-(indol-3-yl)-1-(3,4,5-trimethoxyphenyl)-2-propen-1-one], the IC50 was 6.3 nM.

Take `COc1cc(C(=O)/C=C/c2cn(C(=O)c3cccnc3)c3ccccc23)cc(OC)c1OC` [Compound 60, (E)-3-(1-Nicotinoylindol-3-yl)-1-(3,4,5-trimethoxyphenyl)-2-propen-1-one]: the IC50 came to 7.7 nM.

As to `COc1cc(C(=O)/C=C/c2cn(C(=O)COCC(=O)O)c3ccccc23)cc(OC)c1OC` [Compound 67, (E)-3-(1-Diglycolylindol-3-yl)-1-(3,4,5-trimethoxyphenyl)-2-propen-1-one], the IC50 amounted to 11 nM.

Regarding `COc1cc(C(=O)/C=C/c2cn(C(=O)c3ccc(NC(C)=O)cc3)c3ccccc23)cc(OC)c1OC` [Compound 56, (E)-3-[1-(4-Acetamidobenzoyl)indol-3-yl]-1-(3,4,5-trimethoxyphenyl)-2-propen-1-one], the IC50 stood at 23 nM.

Regarding `COc1cc(C(=O)/C=C/c2c(C)[nH]c3ccccc23)cc(OC)c1OC` [Compound 12, (E)-3-(2-Methylindol-3-yl)-1-(3,4,5-trimethoxyphenyl)-2-propen-1-one], the IC50 was found to be 260 nM.

`COc1cc(C(=O)/C(C)=C/c2c[nH]c3cc(C)ccc23)cc(OC)c1OC` [Compound 63, (E)-2-Methyl-3-(6-methylindol-3-yl)-1-(3,4,5-trimethoxyphenyl)-2-propen-1-one]: the IC50 turned out to be 0.73 nM.

In the case of `CC/C(=C\c1c[nH]c2ccccc12)C(=O)c1cc(OC)c(OC)c(OC)c1` [Compound 62, (E)-2-Ethyl-3-(indol-3-yl)-1-(3,4,5-trimethoxyphenyl)-2-propen-1-one], the IC50 turned out to be 4.7 nM.

For the compound `COc1cc(C(=O)/C=C/c2cn(C(=O)c3cc(OC)c(OC)c(OC)c3)c3ccccc23)cc(OC)c1OC` [Compound 59, (E)-3-[1-(3,4,5-Trimethoxybenzoyl)indol-3-yl]-1-(3,4,5-trimethoxyphenyl)-2-propen-1-one], the IC50 was 28 nM.

For `COc1cc(C(=O)/C=C/c2cn(C(=O)c3ccc(C)cc3)c3ccccc23)cc(OC)c1OC` [Compound 50, (E)-3-[1-(4-Methylbenzoyl)indol-3-yl]-1-(3,4,5-trimethoxyphenyl)-2-propen-1-one], the IC50 is 25 nM.

On to `COc1cc(C(=O)/C=C/c2c[nH]c3c(OC)c(OC)ccc23)cc(OC)c1OC` [Compound 40, (E)-3-(6,7-Dimethoxyindol-3-yl)-1-(3,4,5-trimethoxyphenyl)-2-propen-1-one], for which the IC50 was found to be 12 nM.

Turning to `COc1cc(C(=O)/C=C/c2cn(C(=O)c3ccc(N(C)C)cc3)c3ccccc23)cc(OC)c1OC` [Compound 57, (E)-3-[1-(4-Dimethylaminobenzoyl)indol-3-yl]-1-(3,4,5-trimethoxyphenyl)-2-propen-1-one], the IC50 came to 31 nM.

As to `COc1cc(C(=O)/C=C/c2cn(C(=O)c3ccncc3)c3ccccc23)cc(OC)c1OC` [Compound 61, (E)-3-(1-Isonicotinoylindol-3-yl)-1-(3,4,5-trimethoxyphenyl)-2-propen-1-one], the IC50 was 9.7 nM.

Regarding `COc1cc(C(=O)/C(C)=C/c2c[nH]c3ccccc23)cc(OC)c1OC` [Compound 48, (E)-3-(Indol-3-yl)-2-methyl-1-(3,4,5-trimethoxyphenyl)-2-propen-1-one], the IC50 was 0.29 nM.

Consider `COc1cc(C(=O)/C=C/c2c[nH]c3ccc(C)cc23)cc(OC)c1OC` [Compound 20, (E)-3-(5-Methylindol-3-yl)-1-(3,4,5-trimethoxyphenyl)-2-propen-1-one], for which the IC50 is 110 nM.

On to `CCc1ccc2c(/C=C(\C)C(=O)c3cc(OC)c(OC)c(OC)c3)c[nH]c2c1` [Compound 66, (E)-3-(6-Ethylindol-3-yl)-2-methyl-1-(3,4,5-trimethoxyphenyl)-2-propen-1-one], for which the IC50 worked out at 2.5 nM.

For `COc1cc(C(=O)C(=Cc2c[nH]c3ccccc23)c2ccccc2)cc(OC)c1OC` [Compound 64, 3-(Indol-3-yl)-2-phenyl-1-(3,4,5-trimethoxyphenyl)-2-propen-1-one], the IC50 is 2.3 nM.

Turning to `COc1cccc(C(=O)n2cc(/C=C/C(=O)c3cc(OC)c(OC)c(OC)c3)c3ccccc32)c1` [Compound 53, (E)-3-[1-(3-Methoxybenzoyl)indol-3-yl]-1-(3,4,5-trimethoxyphenyl)-2-propen-1-one], the IC50 worked out at 34 nM.

For the compound `COc1cc(C(=O)/C=C/c2c[nH]c3c(OC)cccc23)cc(OC)c1OC` [Compound 46, (E)-3-(7-Methoxyindol-3-yl)-1-(3,4,5-trimethoxyphenyl)-2-propen-1-one], the IC50 is 200 nM.

Take `COc1cc(C(=O)/C=C/c2cn(C(C)=O)c3ccccc23)cc(OC)c1OC` [Compound 6, (E)-3-(1-Acetylindol-3-yl)-1-(3,4,5-trimethoxyphenyl)-2-propen-1-one]: the IC50 came to 17 nM.

As for `COc1cc(C(=O)/C=C/c2c(Cl)n(C)c3ccccc23)cc(OC)c1OC` [Compound 13, (E)-3-(2-Chloro-1-methylindol-3-yl)-1-(3,4,5-trimethoxyphenyl)-2-propen-1-one], the IC50 was 78 nM.

For the compound `COc1cc(C(=O)/C=C/c2cn(C)c3ccccc23)cc(OC)c1OC` [Compound 2, (E)-3-(1-Methylindol-3-yl)-1-(3,4,5-trimethoxyphenyl)-2-propen-1-one], the IC50 is 20 nM.

`COc1cc(C(=O)/C=C/c2cn(C)c3cc(NC(C)=O)ccc23)cc(OC)c1OC` [Compound 38, (E)-3-(6-Acetamido-1-methylindol-3-yl)-1-(3,4,5-trimethoxyphenyl)-2-propen-1-one]: the IC50 was 55 nM.
